In US20250091989A1, “SMALL MOLECULE PROTEIN SYNTHESIS MODULATORS” (Interdict Bio, Inc., priority 2023, published 2025):

Experiments:
Assay type in all cases: biochemical
Details in all cases: HeLa S3 lysate, sfGFP/mCherry ratio, 2 hrs at 30° C.
MYC = experiment: In vitro transcription-translation (IVTT) reporter assay, MYC test sequence
From the text: (§1) All reporter constructs have been cloned into the pT7CFE1-CHis plasmid (ThermoFisher #88860) using Gibson assembly procedures (NEB #E2611L). The parental pT7CFE1-CHis plasmid contains an EMCV IRES at the 5′UTR for translation initiation, a multiple-cloning site (MCS) for gene insertion, an optional C-terminal His-epitope tag, and polyA sequence in the 3′UTR to regulate mRNA stability. All reporters are designed to be inserted at the MCS to include a red fluorescent protein (mCherry), P2A self-cleaving peptide which releases the preceding mCherry protein product, and a fusion open reading frame containing a 3×FLAG epitope, a peptide sequence of interest (TEST), and green fluorescent protein (sfGFP).
(§2) Construct Plasmid Preparation: All plasmids are isolated from MACH1 cells (ThermoFisher) grown overnight in ampicillin-containing luria broth, and purified using ZymoPure Express Plasmid Midiprep Kit (Zymo Research). Constructs are sequenced verified and diluted to a working concentration of 110 ng/μL.
(§3) HeLa S3 Lysate Preparation: HeLa S3 cell pellets are acquired from Ipracell/Ipratech (Belgium) and shipped as 4 mL frozen cell pellets on dry ice for storage at −80° C. until use. The procedure for lysate preparation is as follows. Prepare 1× Lysis Buffer, cold and stored on ice:
(§4) Each preparation takes 8 cell pellets (4 ml packed volume each, approximately 1.0×10^9 cells per pellet). Thaw cell pellets from −80° C. on ice for 90 mins. Lay pellets horizontally on top of the ice and rotate every 30 mins to ensure even thawing. Once thawed, add 4 mL of cold lysis buffer to each pellet, and using a serological pipet, gently pipet up and down to break up clumps. Incubate resuspended cells in ice for an additional 30 mins (plunged into ice). During 30 min incubation, rinse and RNase-zap (Ambion) glass dounces (use loose pestle “A”), gently dry and place on ice until needed. Prepare RNase-free Eppendorf tubes for spinning and for batch storage. Add batch labels to 1.5-1.7 mL RNase-free microcentrifuge tubes (labeling scheme below). Each batch will have an extra 1.5-1.7 mL RNase-free microcentrifuge tube for 40 μL of lysate, label the top of this tube (labeling scheme below). After 30 min incubation, transfer all 8 mL of cell pellet to dounce. Cell lysis is complete after douncing 100 times. Aliquot cell lysis into 1.5-1.7 mL temporary-microcentrifuge tubes. Place tubes in centrifuge with “fins” out, and spin at 1,200 xg for 5 mins. After the first spin use a 1 mL pipet to resuspend each tube and repeat spin. This acts as an additional lysis step, is more vigorous and increases lysate yield. During second spin get liquid N2 and a fresh conical tube on ice.
(§5) After spin is complete, transfer supernatant (lysate) from microcentrifuge tubes into the 50 mL conical tube and keep on ice. Repeat steps 10-14 for all other cell pellets until completed. Once all cell lysate has been transferred to the 50 mL conical tube pipet to mix so the solution is homogenous. Transfer 1 mL of lysate into batch-labeled microcentrifuge tubes and flash freeze in liquid nitrogen. Be sure to pipet up and down to mix throughout transfer step. Place all tubes in the […] for long-term storage.
(§6) In vitro transcription-translation assay setup: Each assay includes a master mix containing lysate and shared components, a 96-well plate containing compound titrations for testing, a 96-well DNA plate with reporter constructs to be tested, 96-well skirted PCR plates, and 96-well flat-bottom, black, fluorescent assay plates. […]

ALK = experiment: In vitro transcription-translation (IVTT) reporter assay, ALK test sequence
From the text: as §1, §2, §3, §4, §5, §6

KRAS G12D = experiment: In vitro transcription-translation (IVTT) reporter assay, KRAS G12D test sequence
From the text: as §1, §2, §3, §4, §5, §6

Row | Structure (SMILES) | IC50 (MYC) | IC50 (ALK) | IC50 (KRAS G12D)
1 | COc1ccc(C[C@H]2NC[C@H](O)[C@H]2OC(=O)[C@H]2CCCO2)cc1 [V186824, (2R,3S,4S)-4-hydroxy-2-[(4-methoxyphenyl)methyl]pyrrolidin-3-yl (2R)-oxolane-2-carboxylate] | > 30 µM | < 10 µM | > 30 µM
2 | COCCOCC(=O)O[C@@H]1[C@@H](O)CN[C@@H]1Cc1ccc(OC)cc1 [V186783] | < 10 µM | < 10 µM | < 10 µM
3 | COc1ccc(C[C@H]2NC[C@H](O)[C@H]2OC(=O)C23CC(F)(C2)C3)cc1 [V187044, (2R,3S,4S)-4-hydroxy-2-[(4-methoxyphenyl)methyl]pyrrolidin-3-yl 3-fluorobicyclo[1.1.1]pentane-1-carboxylate; trifluoroacetic acid] | 10 to 20 µM | < 10 µM | > 30 µM
4 | COc1ccc(C[C@H]2NC[C@H](O)[C@H]2OC(=O)C2CC(F)C2)cc1 (stereo partly drawn) [V187166, (2R,3S,4S)-4-hydroxy-2-[(4-methoxyphenyl)methyl]pyrrolidin-3-yl 3-fluorocyclobutane-1-carboxylate; trifluoroacetic acid] | < 10 µM | < 10 µM | < 10 µM
5 | COc1ccc(C[C@H]2NC[C@H](O)[C@H]2OC(=O)C2CN(Cc3ccccc3)C2)cc1 [V000173, (2R,3S,4S)-4-hydroxy-2-[(4-methoxyphenyl)methyl]pyrrolidin-3-yl 1-benzylazetidine-3-carboxylate] | > 30 µM | > 30 µM | > 30 µM
6 | COc1ccc(C[C@H]2NC[C@H](O)[C@H]2OC(=O)C2CCOC2)cc1 (stereo partly drawn) [V186761, (2R,3S,4S)-4-hydroxy-2-[(4-methoxyphenyl)methyl]pyrrolidin-3-yl oxolane-3-carboxylate] | < 10 µM | < 10 µM | > 30 µM
7 | CC(=O)O[C@@H]1[C@@H](O)CN[C@@H]1Cc1ccc(C#N)cc1 [V187006, (2R,3S,4S)-2-[(4-cyanophenyl)methyl]-4-hydroxypyrrolidin-3-yl acetate; trifluoroacetic acid] | < 10 µM | < 10 µM | < 10 µM
8 | COc1ccc(C[C@H]2NC[C@H](O)[C@H]2OC(=O)CC(C)(C)O)cc1 [V186784, (2R,3S,4S)-4-hydroxy-2-[(4-methoxyphenyl)methyl]pyrrolidin-3-yl 3-hydroxy-3-methylbutanoate] | < 10 µM | < 10 µM | 10 to 20 µM
9 | COc1ccc(C[C@H]2NC[C@H](O)[C@H]2OC(=O)C2CN(C(C)=O)C2)cc1 [V186866, (2R,3S,4S)-4-hydroxy-2-[(4-methoxyphenyl)methyl]pyrrolidin-3-yl 1-acetylazetidine-3-carboxylate] | 10 to 20 µM | < 10 µM | > 30 µM
10 | C#Cc1ccc(C[C@H]2NC[C@H](O)[C@H]2OC(C)=O)cc1 [V186940] | < 10 µM | < 10 µM | < 10 µM
11 | COc1ccc(C[C@H]2NC[C@H](O)[C@H]2OC(=O)C2COC2)cc1 [V0106, (2R,3S,4S)-4-hydroxy-2-[(4-methoxyphenyl)methyl]pyrrolidin-3-yl oxetane-3-carboxylate] | 10 to 20 µM | < 10 µM | 20 to 30 µM
12 | COc1ccc(C[C@H]2NC[C@H](O)[C@H]2OC(=O)[C@H]2CN(Cc3ccccc3)CC23CNC3)cc1 [V186718, (2R,3S,4S)-4-hydroxy-2-[(4-methoxyphenyl)methyl]pyrrolidin-3-yl (8R)-6-benzyl-2,6-diazaspiro[3.4]octane-8-carboxylate] | – | > 30 µM | > 30 µM
13 | COc1ccc(C[C@H]2NC[C@H](O)[C@H]2OC(=O)CN2CC3(C2)CC(F)(F)C3)cc1 [V187067, (2R,3S,4S)-4-hydroxy-2-[(4-methoxyphenyl)methyl]pyrrolidin-3-yl 2-{6,6-difluoro-2-azaspiro[3.3]heptan-2-yl}acetate] | – | < 10 µM | 10 to 20 µM
